Source: ChEMBL document CHEMBL1201862, “PubChem BioAssay data set” (2004)
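Following 48 hours of exposure in 96-well plates, responses at five concentrations were used to interpolate endpoints linearly. GI50 = concentration required for 50% inhibition of growth.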 The source made the active and inactive calls. No stated cut-off is given here; in the data, active = GI50 up to about 1.1 µM and inactive = higher.

Key:
Test in all cases: inhibition of tumour cell growth, NCI panel, 48 h
786-0 = system: 786-0
A498 = system: A498
A549 = system: A549
ACHN = system: ACHN
BT-549 = system: BT-549
CAKI-1 = system: CAKI-1
COLO 205 = system: COLO 205
DU-145 = system: DU-145
EKVX = system: EKVX
HCC 2998 = system: HCC 2998
HCT-116 = system: HCT-116
HCT-15 = system: HCT-15
HL-60 = system: HL-60
HOP-62 = system: HOP-62
HOP-92 = system: HOP-92
HT-29 = system: HT-29
Hs-578T = system: Hs-578T
KM12 = system: KM12
M14 = system: M14
MCF7 = system: MCF7
MDA-MB-231 = system: MDA-MB-231
MDA-MB-435 = system: MDA-MB-435
MOLT-4 = system: MOLT-4
Malme-3M = system: Malme-3M
NCI-H226 = system: NCI-H226
NCI-H23 = system: NCI-H23
NCI-H460 = system: NCI-H460
NCI-H522 = system: NCI-H522
NCI/ADR-RES = system: NCI/ADR-RES
OVCAR-3 = system: OVCAR-3
OVCAR-4 = system: OVCAR-4
OVCAR-5 = system: OVCAR-5
OVCAR-8 = system: OVCAR-8
PC-3 = system: PC-3
RPMI-8226 = system: RPMI-8226
RXF 393 = system: RXF 393
SF-268 = system: SF-268
SF-295 = system: SF-295
SF-539 = system: SF-539
SK-MEL-2 = system: SK-MEL-2
SK-MEL-5 = system: SK-MEL-5
SK-OV-3 = system: SK-OV-3
SNB-19 = system: SNB-19
SNB-75 = system: SNB-75
SR = system: SR
SW-620 = system: SW-620
T47D = system: T47D
TK-10 = system: TK-10
U-251 = system: U-251
UACC-257 = system: UACC-257
UACC-62 = system: UACC-62
UO-31 = system: UO-31
CCRF-CEM = system: CCRF-CEM
IGROV-1 = system: IGROV-1
K562 = system: K562
LOX IMVI = system: LOX IMVI
MDA-N = system: MDA-N
SK-MEL-28 = system: SK-MEL-28

In the case of N[C@]1(C(=O)O)C[C@@H]2C(Br)=NO[C@@H]2C1, the GI50 (786-0) is reported as > 100 µM (inactive), the GI50 (A498) is reported as > 100 µM (inactive) and the GI50 (A549) is reported as > 100 µM (inactive). The GI50 (ACHN) was > 100 µM (inactive), the GI50 (BT-549) was > 100 µM (inactive) and the GI50 (CAKI-1) was > 100 µM (inactive). For the same molecule, the GI50 (COLO 205) was > 100 µM (inactive), the GI50 (DU-145) was > 100 µM (inactive) and the GI50 (EKVX) was 70.3 µM (inactive). The GI50 (HCC 2998) was > 100 µM (inactive), the GI50 (HCT-116) was 56 µM (inactive) and the GI50 (HCT-15) was 76.9 µM. The GI50 (HL-60) was > 100 µM (inactive), the GI50 (HOP-62) was > 100 µM (inactive) and the GI50 (HOP-92) was > 100 µM (inactive). For the same molecule, the GI50 (HT-29) was > 100 µM (inactive), the GI50 (Hs-578T) was > 100 µM (inactive) and the GI50 (KM12) was > 100 µM (inactive). The GI50 (M14) was > 100 µM (inactive), the GI50 (MCF7) was > 100 µM (inactive) and the GI50 (MDA-MB-231) was > 100 µM (inactive). The GI50 (MDA-MB-435) was > 100 µM (inactive), the GI50 (MOLT-4) was > 100 µM (inactive) and the GI50 (Malme-3M) was > 100 µM (inactive). For the same molecule, the GI50 (NCI-H226) was > 100 µM (inactive), the GI50 (NCI-H23) was > 100 µM (inactive) and the GI50 (NCI-H460) was 55.7 µM (inactive). For the same molecule, the GI50 (NCI-H522) was > 100 µM (inactive), the GI50 (NCI/ADR-RES) was > 100 µM (inactive) and the GI50 (OVCAR-3) was > 100 µM (inactive). For the same molecule, the GI50 (OVCAR-4) was > 100 µM (inactive), the GI50 (OVCAR-5) was > 100 µM (inactive) and the GI50 (OVCAR-8) was > 100 µM (inactive). The GI50 (PC-3) was > 100 µM (inactive), the GI50 (RPMI-8226) was > 100 µM (inactive) and the GI50 (RXF 393) was > 100 µM (inactive). The GI50 (SF-268) was > 100 µM (inactive), the GI50 (SF-295) was > 100 µM (inactive) and the GI50 (SF-539) was > 100 µM (inactive). The GI50 (SK-MEL-2) was > 100 µM (inactive), the GI50 (SK-MEL-5) was > 100 µM (inactive) and the GI50 (SK-OV-3) was > 100 µM (inactive). The GI50 (SNB-19) was > 100 µM (inactive), the GI50 (SNB-75) was > 100 µM (inactive) and the GI50 (SR) was 78.9 µM (inactive). The GI50 (SW-620) was > 100 µM (inactive), the GI50 (T47D) was > 100 µM (inactive) and the GI50 (TK-10) was > 100 µM (inactive). For the same molecule, the GI50 (U-251) was > 100 µM (inactive), the GI50 (UACC-257) was > 100 µM (inactive) and the GI50 (UACC-62) was > 100 µM (inactive). For the same molecule, the GI50 (UO-31) was > 100 µM (inactive).
In the case of N#Cc1c(N2CCN(c3ccc([N+](=O)[O-])cc3)CC2)[n+]([O-])c2ccc(-c3ccc([N+](=O)[O-])cc3)cc2[n+]1[O-], the GI50 (786-0) is reported as > 47.8 µM (inactive), the GI50 (A498) is reported as > 100 µM (inactive) and the GI50 (A549) is reported as 2.49 µM (inactive). The GI50 (ACHN) was > 49 µM (inactive), the GI50 (BT-549) was > 100 µM (inactive) and the GI50 (CAKI-1) was 5.35 µM (inactive). For the same molecule, the GI50 (CCRF-CEM) was 1.28 µM (inactive), the GI50 (COLO 205) was 17.9 µM (inactive) and the GI50 (DU-145) was 21.2 µM (inactive). For the same molecule, the GI50 (EKVX) was 7.28 µM (inactive), the GI50 (HCT-116) was 4.56 µM (inactive) and the GI50 (HCT-15) was greater than 85.5 µM. For the same molecule, the GI50 (HOP-62) was 1.82 µM (inactive), the GI50 (HT-29) was > 67.6 µM (inactive) and the GI50 (Hs-578T) was > 75.2 µM (inactive). The GI50 (IGROV-1) was 1.69 µM (inactive), the GI50 (K562) was 5.26 µM (inactive) and the GI50 (KM12) was > 83.6 µM (inactive). The GI50 (LOX IMVI) was 0.9 µM (active), the GI50 (M14) was 19.2 µM (inactive) and the GI50 (MCF7) was > 100 µM (inactive). For the same molecule, the GI50 (MDA-MB-231) was 22.5 µM (inactive), the GI50 (MDA-MB-435) was 39.6 µM (inactive) and the GI50 (MDA-N) was 31.8 µM (inactive). The GI50 (Malme-3M) was > 42 µM (inactive), the GI50 (NCI-H226) was 33 µM (inactive) and the GI50 (NCI-H23) was > 31 µM (inactive). For the same molecule, the GI50 (NCI-H460) was 2.5 µM (inactive), the GI50 (NCI/ADR-RES) was 9.08 µM (inactive) and the GI50 (OVCAR-3) was > 19.8 µM (inactive). For the same molecule, the GI50 (OVCAR-4) was > 31.2 µM (inactive), the GI50 (OVCAR-5) was 30.7 µM (inactive) and the GI50 (OVCAR-8) was 1.62 µM (inactive). For the same molecule, the GI50 (PC-3) was 2.55 µM (inactive), the GI50 (RPMI-8226) was 5.02 µM (inactive) and the GI50 (SF-268) was > 100 µM (inactive). The GI50 (SF-295) was 8.51 µM (inactive), the GI50 (SF-539) was 38.7 µM (inactive) and the GI50 (SK-MEL-28) was > 89.3 µM (inactive). The GI50 (SK-MEL-2) was > 37.2 µM (inactive), the GI50 (SK-MEL-5) was 4.18 µM (inactive) and the GI50 (SK-OV-3) was > 100 µM (inactive). The GI50 (SNB-19) was 9.18 µM (inactive), the GI50 (SNB-75) was > 26.9 µM (inactive) and the GI50 (SW-620) was 35.2 µM (inactive). The GI50 (T47D) was 3.58 µM (inactive), the GI50 (TK-10) was > 56.8 µM (inactive) and the GI50 (U-251) was 1.25 µM (inactive). The GI50 (UACC-257) was 16.4 µM (inactive), the GI50 (UACC-62) was 18 µM (inactive) and the GI50 (UO-31) was 8.59 µM (inactive).
